Source: patent US20260355171A1, “INHIBITORS AND USES THEREFOR” (priority 2022, published 2026)

Assays:
[1] = system: Delta variant of SARS-CoV-2
[2] = system: Omicron variant of SARS-CoV-2

NC(=O)C1CCN(c2ncccc2CNCc2cccc3[nH]ccc23)CC1 [Compound 22]
Titre of Delta variant [1]: Significant reduction of titres
Titre of Omicron variant [2]: Significant reduction of titres
